Experimental data published in patent US20260102347A1, “Sulfur-Containing Ionizable Lipids for the Delivery of Therapeutic Agents” (NanoVation Therapeutics Inc., priority 2022, published 2026).

Experiments:
[1] = delivery of siRNA; relative to KC2; cited from earlier work
liver = assay: In vivo analysis in CD-1 mice: luciferase mRNA-LNP, luminescence in the liver; conditions: LNP 50/10/38.5/1.5 mol % ionizable lipid/DSPC/chol/PEG-DMG, N/P 6, mRNA encoding luciferase 1 mg/kg intravenous, 4 hours post-injection (FIG. 2A)
Method: (§1) Lipids 1 or 2 described herein, DSPC, cholesterol, and PEG-DMG, were dissolved in ethanol at the appropriate ratios to a final concentration of 10 mM total lipid. Nucleic acid (siRNA or mRNA) was dissolved in an appropriate buffer such as 25 mM sodium acetate pH 4 or sodium citrate pH 4 to a concentration necessary to achieve the appropriate amine-to-phosphate ratios. The aqueous and organic solutions were mixed using a rapid-mixing device as described in Kulkarni et al., 2018, ACS Nano, 12:4787 and Kulkarni et al., 2017, Nanoscale, 36:133347 (each incorporated herein by reference) at a flow rate ratio of 3:1 (v/v; respectively) and a total flow rate of 20 mL/min. The resultant mixture was dialyzed directly against 1000-fold volume of PBS pH 7.4. All formulations were concentrated using an Amicon™ centrifugal filter unit and analysed using the methods described below. LNP-mRNA encoding firefly luciferase were injected intravenously (tail-vein) into 6-8 week old CD-1 mice. Four hours following injection, the animals were euthanized and the liver and spleen and isolated. Tissue was homogenized in Glo Lysis buffer and a luciferase assay performed using the Steady Glo Luciferase assay kit (as per manufacturers recommendations). LNP formulations containing 50/10/38.5/1.5 mol % of ionizable lipids/DSPC/chol/PEG-DMG with a nitrogen-to-phosphorous ratio (N/P) of 6 and mRNA encoding luciferase were tested for in vivo transfection efficiency in the liver and spleen after injection to CD-1 mice. The mRNA dose was 1 mg/kg. Luminescence intensity in the liver and spleen was measured at 4 hours post-injection. The ionizable lipids were 1 and 5-32 (Table 1).

spleen = assay: In vivo analysis in CD-1 mice: luciferase mRNA-LNP, luminescence in the spleen; conditions: LNP 50/10/38.5/1.5 mol % ionizable lipid/DSPC/chol/PEG-DMG, N/P 6, mRNA encoding luciferase 1 mg/kg intravenous, 4 hours post-injection (FIG. 2B)
Method: as §1

Structure (SMILES)	siRNA required, times less than KC2 [1]	luminescence intensity per mg liver compared with the MC3 benchmark (liver)	luminescence intensity per mg spleen compared with the MC3 benchmark (spleen)
CCCCC/C=C\C/C=C\CCCCCCCCC(CCCCCCCC/C=C\C/C=C\CCCCC)OC(=O)CCCN(C)C [MC3, DLin-MC3-DMA]	about 3 times	–	–
CCCCCCCCCC(=O)OC(CCCCC(CCCCC(CSC1CCCCC1)OC(=O)CCCCCCCCC)OC(=O)CCCN(C)C)CSC1CCCCC1 (centres unmarked) [lipid 6, 1,13-bis(Cyclohexylthio)-7-((4-(dimethylamino)butanoyl)oxy)tridecane-2,12-diyl bis-(decanoate)]	–	higher	higher
CCCCCCCCCC(=O)OC(CCCCCC(CCCCCC(CSCCCCCC)OC(=O)CCCCCCCCC)OC(=O)CCCN(C)C)CSCCCCCC (centres unmarked) [lipid 7, 8-((4-(Dimethylamino)butanoyl)oxy)-1,15-bis(hexylthio)pentadecane-2,14-diyl bis(decanoate)]	–	higher	higher
CCCCCCSCC(CCCCCC(CCCCCC(CSCCCCCC)OC(=O)CCC1CCCCC1)OC(=O)CCCN(C)C)OC(=O)CCC1CCCCC1 (centres unmarked) [lipid 8, 8-((4-(Dimethylamino)butanoyl)oxy)-1,15-bis(hexylthio)pentadecane-2,14-diyl bis(3-cyclohexylpropanoate)]	–	higher	higher
CCCCCCCCCC(=O)OC(CCCCCC(CCCCCC(CSCCCCCC)OC(=O)CN(C)C(=O)CCCCC)OC(=O)CCCN(C)C)CSCCCCCC (centres unmarked) [lipid 9, 8-((4-(dimethylamino)butanoyl)oxy)-14-((N-hexanoyl-N-methylglycyl)oxy)-1,15-bis-(hexylthio)pentadecan-2-yl decanoate]	–	higher	higher
CCCCCCCCCC(=O)OC(CCCCCC(CCCCCC(CSC1CCCCC1)OC(=O)CCCCCCCCC)OC(=O)CCCN(C)C)CSC1CCCCC1 (centres unmarked) [lipid 10, 1,15-bis(cyclohexylthio)-8-((4-(dimethylamino)butanoyl)oxy)pentadecane-2,14-diyl bis(decanoate)]	–	higher	–
CCCCCCCCC(=O)OC(CCCCCC(CCCCCC(CSC1CCCCC1)OC(=O)CCCCCCCC)OC(=O)CCCN(C)C)CSC1CCCCC1 (centres unmarked) [lipid 11, 1,15-bis(cyclohexylthio)-8-((4-(dimethylamino)butanoyl)oxy)pentadecane-2,14-diyl dinonanoate]	–	higher	–
CCCCCCCCCC(=O)OC(CCCCC(CCCCC(CSCCCCC)OC(=O)CCCCCCCCC)N(C)CCCCO)CSCCCCC (centres unmarked) [lipid 22, 7-((4-Hydroxybutyl)(methyl)amino)-1,13-bis(pentylthio)tridecane-2,12-diyl bis(decano-ate)]	–	higher	higher
CCCCCCCCCC(=O)OC(CCCCC(CCCCC(CSCCCCCCC)OC(=O)CCCCCCCCC)N(C)CCCCO)CSCCCCCCC (centres unmarked) [lipid 23, 1,13-bis(Heptylthio)-7-((4-hydroxybutyl)(methyl)amino)tridecane-2,12-diyl bis(decano-ate)]	–	higher	higher
CCCCCCCCC(=O)OC(CCCCC(CCCCC(CSCCCCCCC)OC(=O)CCCCCCCC)N(C)CCCCO)CSCCCCCCC (centres unmarked) [lipid 24, 1,13-bis(Heptylthio)-7-((4-hydroxybutyl)(methyl)amino)tridecane-2,12-diyl dinonano-ate]	–	higher	higher
CCCCCCCCC(=O)OC(CCCCCC(CCCCCC(CSCCCCC)OC(=O)CCCCCCCC)N(C)CCCCO)CSCCCCC (centres unmarked) [lipid 25, 8-((4-hydroxybutyl)(methyl)amino)-1,15-bis(pentylthio)pentadecane-2,14-diyl dinonano-ate]	–	higher	higher
CCCCCCCCCC(=O)OC(CCCCCC(CCCCCC(CSCCCCC)OC(=O)CCCCCCCCC)N(C)CCCCO)CSCCCCC (centres unmarked) [lipid 26, 8-((4-hydroxybutyl)(methyl)amino)-1,15-bis(pentylthio)pentadecane-2,14-diyl bis-(decanoate)]	–	higher	higher
CCCCCCCCCC(=O)OC(CCCCCC(CCCCCC(CSCCCCCC)OC(=O)CCCCCCCCC)N(C)CCCCO)CSCCCCCC (centres unmarked) [lipid 27, 1,15-bis(Hexylthio)-8-((4-hydroxybutyl)(methyl)amino)pentadecane-2,14-diyl bis-(decanoate)]	–	higher	higher
CCCCCCCCCC(=O)OC(CCCCCC(CCCCCC(CSCCCCCC)OC(=O)CN(C)C(=O)CCCCC)N(C)CCCCO)CSCCCCCC (centres unmarked) [lipid 30, 14-((N-hexanoyl-N-methylglycyl)oxy)-1,15-bis(hexylthio)-8-((4-hydroxybutyl)(methyl)-amino)pentadecan-2-yl decanoate]	–	higher	higher
CCCCCCCCC(=O)OC(CCCCCC(CCCCCC(CSCCCCCCC)OC(=O)CCCCCCCC)N(C)CCCCO)CSCCCCCCC (centres unmarked) [lipid 31, 1,15-bis(Heptylthio)-8-((4-hydroxybutyl)(methyl)amino)pentadecane-2,14-diyl dinonanoate]	–	higher	higher
CCCCCCCCC(=O)OC(CCCCCC(CCCCCC(CSC1CCCCC1)OC(=O)CCCCCCCC)N(C)CCCCO)CSC1CCCCC1 (centres unmarked) [lipid 32, 1,15-bis(Cyclohexylthio)-8-((4-hydroxybutyl)(methyl)amino)pentadecane-2,14-diyl dinonanoate]	–	higher	higher
